From patent publication US9375450B2, “Vaginal tissue rejuvenation compositions and methods” (priority 2011, dated 2016)

Experiments:
Format in all cases: cell-based, human
[1] = system: primary vaginal smooth muscle cells; assay: Fastin assay for elastin (tropoelastin and surface deposited elastin production); conditions: for tropoelastin production normalized to cell number (% of control) / cell culture surface deposited elastin production normalized to cell number (% of control): mean±SD; for vaginal smooth muscle cell elastin production (in words): cell cultures of the vagina from women who have undergone a hysterectomy; for cell culture surface deposited elastin production normalized to cell number (% of control): 48 hours of treatment
Description: (§1) After removal of the uterus, full-thickness samples of the anterior vaginal wall were obtained from the vaginal cuff at the anterior midline portion under sterile condition from four women without POP. Specimens were preserved in cold DMEM/F12 (Invitrogen, Carlsbad, Calif.) supplemented with 10% FBS, 1 mM glutamine, 0.075% Na2HCO3 and 100 ug/ml penicillin-streptomycin. After a maximum time of 4 hours from tissue harvesting the tissue was mechanically minced in cold cultured media and the fragments were washed 3 times in PBS and were plated onto fibronectin coated plastic dishes (Thermo Fischer Scientific, Rochester, N.Y.). After the initial outgrowth, clones with a morphology resembling the smooth muscle phenotype were patch cloned and propagated in culture. For cell characterization a 5000 cell/well fibronectin coated 8-well chamber slide was plated. Once cell confluence reached 80% the cells were washed twice with PBS and fixed in 4% PFA for 30 min at 37° C. To verify the intracytoplasmic distribution of F-actin fibers 4% PFA fixed cells were exposed to a permeabilizing solution of Tryton X100 0.1% and Rhodamine Phalloidin for 45 min at 37° C. Slides were then treated with mounting media (Vectashield, Vector Laboratories, Burlingame, Calif.) containing DAPI for nucleic acid staining and image acquisition was performed in glycerol immersion by confocal microscopy. In addition, the 8-well chamber slides were used to carry out the immunocytochemical staining. After blockage of endogenous peroxidase activity with a solution of hydrogen peroxide and methanol, slides were sequentially treated with the primary mouse antibody, biotinylated anti-mouse immunoglobulin, and Streptavidin-biotin-peroxidase complex (LSAB™+/HRP kit, Dako, Carpinteria, Calif.). Diaminobenzidine was used as a chromogen in the presence of hydrogen peroxide. Slides were then counterstained with hematoxylin. All reactions were carried out at room temperature (22° C.). To identify the SMC, anti-smooth muscle actin antibodies were used (monoclonal mouse, 1:250, 30 min incubation, clone 1A4, catalog #0851 Dako, Carpinteria, Calif.). Caldesmon expression was studied with a monoclonal mouse antibody, 1:100, 30 min incubation, (clone h-CD catalog #M3557 Dako, Carpinteria, Calif.). An antigen retrieval step was used for caldesmon using citrate buffer and a steamer for 30 min. As a negative control normal mouse serum was substituted for the antibody.
SMC from the fourth to sixth passages (5,000 cells per well) were cultured in 96-well or 6-well culture plates (Costar, Cambridge, Mass.), in a total volume of 200 μL or 2 mL DMEM/F-12 with 10% FBS and were grown to near confluence. Cells were incubated with zinc sulfate (10 μM, 20 μM), GW501516 (1 nM, 10 nM, 100 nM) or zinc sulfate with GW 501516 (20 μM with 10 nM) in 96-well plates with serum free DMEM/F-12. Treatment and control groups were performed in 6 replicate wells. Supernatants and cell lysates were collected 24 or 48 hrs after the initiation of treatment. Supernatants and cell lysates were treated with the Fastin Elastin Assay kit (Biocolor Ltd, UK) as recommended by the manufacturer. The Fastin Elastin Assay is a quantitative dye-binding method for the analysis of elastins extracted from biological materials. The dye label employed is 5, 10, 15, 20-tetraphenyl-21, 23-porphine tetra-suffocated (TPPS). The dye reagent binds to the ‘basic’ and ‘non-polar’ amino acid sequences found in mammalian elastins. Recovered dye-bound elastin from each sample and standard was read in a 96-well plate at 513 nm. All measurements were performed in quadruplicate. The measured elastin protein amounts were normalized to corresponding cell numbers to provide a reliable basis of comparison between samples.

[2] = system: primary vaginal smooth muscle cells; assay: MTT proliferation assay; conditions: mean±SD
Description: as §1
To perform the MTT proliferation assay, SMC from the fourth to sixth passages (5,000 cells per well) were cultured in 96-well culture plates (Costar, Cambridge, Mass.), in a total volume of 200 μL DMEM/F-12 with 10% FBS. Cells were incubated with zinc sulfate heptahydrate (Sigma, Saint Louis, Mo.) (10 μM, 20 μM and 50 μM), GW501516 (Alexis, Switzerland) (1 nM, 10 nM, 100 nM) in 96-well plates and cell proliferation was assessed by a 3-[4,5-dimethylthiazol-2-yl]-2,5-diphenyl tetrazoliumbromide (MTT) assay at 24 or 48 hrs utilizing a commercially available MTT assay kit (American Type Culture Collection, Catalog #30-1010K, Manassas, Va.). Treatment and control groups were performed in 6 replicate wells. The relative number of viable cells was determined at 24 or 48 hours by incubating the cells with 1 mg/mL of MTT for 4 hours. The live cells utilized MTT resulting in the accumulation of formazan crystals which were then solubilized with acid isopropanol (90% isopropyl alcohol, 2.5% SDS, 0.004 N HCL) for 1 hour. The optical density of the solution was measured at 570 nm.

[3] = system: primary vaginal smooth muscle cells; assay: Sircol collagen assay (cell culture surface deposited collagen); conditions: 48 hours of treatment, mean±SD
Description: as §1
The Sircol Assay (Biocolor Ltd., UK) is a dye-binding method designed for the analysis of acid and pepsin-soluble collagens. […]
The amount of collagen was determined by SIRCOL collagen assay according to manufacturer's instructions. […] Extracts were incubated with Sirius red dye and absorbance was determined at 555 nm with a spectrophotometer.

## O.O.O.O.O.O.O.O=S(=O)([O-])[O-].[Zn+2] [zinc sulfate, zinc sulfate heptahydrate]
[1]; 10 μM, 48 hrs of culture
  tropoelastin production normalized to cell number (% of control): 113.3±11 % of control
[1]; 20 μM, 48 hrs of culture
  tropoelastin production normalized to cell number (% of control): 117±8.9 % of control
[1]
  vaginal smooth muscle cell elastin production (in words): significantly increased
[1]; zinc sulfate 10 μM
  cell culture surface deposited elastin production normalized to cell number (% of control): 114.7±6 % of control
[1]; zinc sulfate 20 μM
  cell culture surface deposited elastin production normalized to cell number (% of control): 118.0±25 % of control
[2]; 10 μM, 48 hrs of culture
  relative cell number (% of control): 94.7±4.6 % of control
[2]; 20 μM, 48 hrs of culture
  relative cell number (% of control): 90.4±5.5 % of control
[2]; 50 μM, 48 hrs of culture
  relative cell number (% of control): 43.3±30.0 % of control
[3]; zinc sulfate 10 μM
  cell culture surface deposited collagen production normalized to cell number (% of control): 139.3±49 % of control
[3]; zinc sulfate 20 μM
  cell culture surface deposited collagen production normalized to cell number (% of control): 129.6±27 % of control

## Cc1cc(SCc2sc(-c3ccc(C(F)(F)F)cc3)nc2C)ccc1OCC(=O)O [GW501516, 2-[2-methyl-4-([4-methyl-2-[4-(trifluoromethyl)phenyl)-1,3-thiazol-5-yl]methylsulfanyl]phenoxy]acetic acid]
[1]; 1 nM, 24 hrs of culture
  tropoelastin production normalized to cell number (% of control): 106.6±16 % of control
[1]; 10 nM, 24 hrs of culture
  tropoelastin production normalized to cell number (% of control): 120.5±16 % of control
[1]; 100 nm, 24 hrs of culture
  tropoelastin production normalized to cell number (% of control): 146.7±11 % of control
[1]; GW 10 nM
  cell culture surface deposited elastin production normalized to cell number (% of control): 108.2±6 % of control
[1]; GW 100 nM
  cell culture surface deposited elastin production normalized to cell number (% of control): 112.2±16 % of control
[1]
  vaginal smooth muscle cell elastin production (in words): significantly increase
[2]; 1 nM, 24 hrs of culture
  relative cell number (% of control): 98.9±10.3 % of control
[2]; 10 nM, 24 hrs of culture
  relative cell number (% of control): 95.9±6.5 % of control
[2]; 100 nM, 24 hrs of culture
  relative cell number (% of control): 87.0±10.6 % of control
[3]; GW 10 nM
  cell culture surface deposited collagen production normalized to cell number (% of control): 151.0±22 % of control
[3]; GW 100 nM
  cell culture surface deposited collagen production normalized to cell number (% of control): 118.2±19 % of control
